The values below come from US20250205217A1, “METHODS OF IMPROVING CANCER IMMUNOTHERAPY” (THE REGENTS OF THE UNIVERSITY OF CALIFORNIA, priority 2022, published 2025).

The structures appear in SMILES notation. Entries after “also recorded” stand apart in the source; their conditions may differ.

Experiment [1] deals with MB49 bladder cancer cells. The experiment is described as follows: Murine bladder cancer model (MB49), subcutaneous tumor growth. The settings on record: for MB49 tumor volume, combination with anti-PD1: omega-6 rich diet, 5 mg/kg/day via drinking water + anti-PD1 200 μg Q3D, vs either agent alone, P<0.05. It is filed as in vivo, mice. The text has this: 10^6 MB49 cells were introduced into mice, and treatment was initiated with established tumors (˜200 mm^3), seven days after tumor injection. The CTLA-4 antibody used is from BioCell, Catalog number BE0131; In VivoMAb anti-mouse CTLA-4 (CD152). See, FIG. 1A and FIG. 1B.
The mice in this study were randomized, and treatment was initiated with established tumors (˜200 mm^3), seven days after […]. See, FIG. 2A-2C; FIG. 9A-9F.
(A & B). Mice were inoculated subcutaneously with 1×10^6 MB49 cells. Treatment initiated when MB49 tumors reached ˜200 mm^3. Mice were randomized and treated with PTUPB (60 mg/kg Q3D, orally) or chemotherapy (cisplatin+gemcitabine; cisplatin=5 mg/kg, gemcitabine=75 mg/kg, Q3D). Mice were sacrificed after 16 days of treatment. n=4-5 mice/group. Gene expression levels of sEH and COX-2 in tumor tissue after 16 days of treatment. Analyzed by qPCR and normalized by GAPDH. A: **Control vs chemotherapy (p=0.0099), **PTUPB vs chemotherapy (p=0.0095); B. **Control vs chemotherapy (p=0.0072), ***PTUPB vs chemotherapy (p=0.0001). (C) Mice were inoculated subcutaneously with 1×10^6 MB49 cells. Treatment initiated when MB49 tumors reached ˜200 mm^3. Mice were randomized and treated with combinations of PTUPB (60 mg/kg Q3D, orally), anti-PD1 (200 μg Q3D), anti-CTLA4 ([…]), chemotherapy (cisplatin+gemcitabine; cisplatin=5 mg/kg, gemcitabine=75 mg/kg, Q3D). Mice were sacrificed after 16 days of treatment. n=4-5 mice/group. *p<0.05. (D and E). Gene expression levels of EGF and VEGF-C in tumor tissue after 16 days of treatment. Analyzed by qPCR and normalized by GAPDH. D: *chemotherapy vs chemotherapy+PTUPB (p=0.0136); E: **Control vs anti-CTLA4 (p=0.0012), **PTUPB vs anti-CTLA4 (p=0.0081), **anti-CTLA4 vs anti-CTLA4+PTUPB (0.0296). (F) Mice were inoculated orthotopically into the bladder wall with 5×10^5 MB49 cells. Treatment was initiated 3 days after tumor injection with PTUPB (60 mg/kg Q3D, orally). n=5 mice per group. **PTUPB vs control (p=0.0018).
(§1) (A) MB49 bladder cancer tumor volume over time. Following 12 days of pre-treatment with the omega-6 rich diet, tumor cells (1×10^6 MB49 bladder cancer cells) were injected subcutaneously into the mid dorsum. Once tumors reached ˜200 mm^3, treatment was initiated with anti-PD1 (200 μg Q3D), EC5026 (5 mg/kg/day via drinking water), combination anti-PD1+EC5026, or no treatment (control). […] N=3-5 mice per group. P<0.05. (B) B16F10 melanoma tumor volume over time. […]. Following 12 days of pre-treatment with the omega-6 rich diet, tumor cells (1×10^6 B16F10 melanoma cells) were injected subcutaneously into the mid dorsum. Once tumors reached ˜200 mm^3, treatment was initiated with anti-CTLA4 (200 μg 1st dose, then 100 μg Q3D), 1770 (5 mg/kg/day via drinking water), combination 1770+anti-CTLA4, or no treatment (control). […] N=4-5 mice per group.
FIGS. 6A-6E Dietary omega-3 supplementation inhibits tumor growth in both fast-growing and slow-growing tumor models in mice. (A) Prostate cancer (RM1) tumor growth over time. Following 12 days of pre-treatment with the omega-3 rich diet or control diet, tumor cells (1×10^5 RM1 prostate cancer cells) were injected subcutaneously into the mid dorsum. […] N=3-5 mice/group. (B) MB49 bladder cancer tumor volume over time. Following 12 days of pre-treatment with the omega-3 rich diet or control diet, tumor cells (1×10^6 MB49 bladder cancer cells) were injected subcutaneously. […] N=3-5 mice/group. […]

Experiment [2] concerns B16F10 melanoma cells. The experiment is described as follows: B16F10 melanoma tumor volume over time. Type of experiment: in vivo, mice. The settings on record: omega-6 rich diet; 5 mg/kg/day via drinking water + anti-CTLA4; vs either agent alone. Here is the method:
as §1
(A) MB49 bladder cancer tumor volume over time. Following 12 days of pre-treatment with the omega-3 rich diet or control diet, tumor cells (1×10^6 MB49 bladder cancer cells) were injected subcutaneously into the mid dorsum. Once tumors reached ˜200 mm^3, treatment was initiated with either anti-PD1 (200 μg Q3D) or no treatment (control). […] N=3-5 mice per group. p<0.0001. (B) Prostate cancer (RM1) tumor volume over time. […]

Experiment [3] deals with oxylipin. The experiment is described as follows: LCMS/MS oxylipin analysis of MB49 bladder cancer tumor tissue. Type of experiment: in vivo. The settings on record: mice on the control diet only. The method, then:
These lipid mediators are potential biomarkers of bladder cancer and the anti-tumor response to the diets (e.g. omega-3 or omega-6 fatty acids), immunotherapy (e.g., anti-PD1), and sEH inhibitor (e.g., 5026). (A) Heatmap of LCMS/MS oxylipin analysis performed on murine MB49 bladder cancer tumor tissue. […] Tumor tissue from mice treated with the control diet only. […] Tumor tissue from mice treated with the control diet only.

On to `NS(=O)(=O)c1ccc(-n2nc(CCCNC(=O)Nc3ccc(C(F)(F)F)cc3)cc2-c2ccccc2)cc1` [PTUPB], for which, in experiment [1] (10^6 MB49 cells, established tumors (~200 mm^3), seven days after tumor injection, FIG. 1), the “tumor growth, combination with immunotherapy (anti-CTLA-4)” value was “unexpected induction of tumor regression; also recorded: enhances immunotherapy”. In addition, the “tumor growth, alone and with chemotherapy or immunotherapy” value in experiment [1] (PTUPB 60 mg/kg Q3D orally, MB49, FIG. 9) was “blocks tumor growth and enhances chemotherapy and immunotherapy”. Besides, the “tumor growth, combination with chemotherapy (gemcitabine and cisplatin) and immunotherapy” value in experiment [1] (established MB49 tumors (~200 mm^3), 16 days of treatment, FIG. 2, FIG. 9) is “unexpected induction of tumor regression; also recorded: induce tumor regression”.

As for `CCC(=O)N1CCC(NC(=O)Nc2ccc(OC(F)(F)F)cc2)CC1` [Compound 1770], the “B16F10 melanoma tumor volume, combination with anti-CTLA4” value in experiment [2] is on record as “tended to have smaller tumors”.

Take `CC[C@H](C)C(=O)N1CCC(NC(=O)Nc2ccc(OC(F)(F)F)c(F)c2)CC1` [EC5026]: the “MB49 tumor volume, combination with anti-PD1” value in experiment [1] (5 mg/kg/day) is on record as “significantly smaller tumors”. In addition, the “MB49 tumor volume, combination with anti-PD1” value in experiment [1] (listed as 5026, 5 mg/kg/day) is “unexpected induction of tumor regression; also recorded: synergizes with immunotherapy”. Also, in experiment [3], the “levels of 7,8-DiHDPE, 17,18-DiHETE, and 15,16-DiHODE in MB49 bladder cancer tissue” value is reported as “prevented this increase”; the “levels of 15(16)-EpODE, 12(13)-EpOME, 17(18)-EpETE and 14(15)-EpETrE in MB49 bladder cancer tissue” value is “prevented the drop in these metabolites, and increased levels of these metabolites compared to controls”.
